Results taken from ChEMBL document CHEMBL1123524, “Aminoglycoside antibiotics. 6. Chemical reactions of aminoglycosides with disodium carbenicillin” (1986).

What was measured:
Escherichia coli [1] = experiment: Antibacterial activity expressed as MIC value was determined on Escherichia coli A-9632 organism; assay type: functional
Escherichia coli [2] = experiment: (§1) Antibacterial activity expressed as MIC value was determined on Escherichia coli A-22356 organism; assay type: functional
Escherichia coli [3] = experiment: Antibacterial activity expressed as MIC value was determined on Escherichia coli A-20665 organism; assay type: functional
Escherichia coli [4] = experiment: Antibacterial activity expressed as MIC value was determined on Escherichia coli A-20683 organism; assay type: functional
Escherichia coli [5] = experiment: Antibacterial activity expressed as MIC value was determined on Escherichia coli A-20697 organism; assay type: functional
Escherichia coli [6] = experiment: Antibacterial activity expressed as MIC value was determined on Escherichia coli A-20732 organism; assay type: functional
Escherichia coli [7] = experiment: Antibacterial activity expressed as MIC value was determined on Escherichia coli A-20895 organism; assay type: functional
Escherichia coli [8] = experiment: Antibacterial activity expressed as MIC value was determined on Escherichia coli A-21218 organism; assay type: functional
Escherichia coli [9] = experiment: Antibacterial activity expressed as MIC value was determined on Escherichia coli A-22045 organism; assay type: functional
Enterobacter cloacae [10] = experiment: Antibacterial activity expressed as MIC value was determined on Enterobacter cloacae A-21006 organism; assay type: functional
Enterobacter cloacae [11] = experiment: Antibacterial activity expressed as MIC value was determined on Enterobacter cloacae A-21136 organism; assay type: functional
Enterobacter cloacae [12] = experiment: Antibacterial activity expressed as MIC value was determined on Enterobacter cloacae A-9656 organism; assay type: functional
Klebsiella pneumoniae = experiment: Antibacterial activity expressed as MIC value was determined on Klebsiella pneumonia A-20468 organism; assay type: functional
Providencia stuartii [13] = experiment: Antibacterial activity expressed as MIC value was determined on Proteus stuartii A-21210 organism; assay type: functional
Providencia rettgeri [14] = experiment: (§2) Antibacterial activity expressed as MIC value was determined on Proteus rettgeri A-9637 organism; assay type: functional
Proteus mirabilis = experiment: Antibacterial activity expressed as MIC value was determined on Proteus mirabilis A-9900 organism; assay type: functional
Pseudomonas aeruginosa [15] = experiment: Antibacterial activity expressed as MIC value was determined on Pseudomonas aeruginosa A-20601 organism; assay type: functional
Pseudomonas aeruginosa [16] = experiment: Antibacterial activity expressed as MIC value was determined on Pseudomonas aeruginosa A-20653 organism; assay type: functional
Pseudomonas aeruginosa [17] = experiment: Antibacterial activity expressed as MIC value was determined on Pseudomonas aeruginosa A-20717 organism; assay type: functional
Pseudomonas aeruginosa [18] = experiment: Antibacterial activity expressed as MIC value was determined on Pseudomonas aeruginosa A-20897 organism; assay type: functional
Pseudomonas aeruginosa [19] = experiment: Antibacterial activity expressed as MIC value was determined on Pseudomonas aeruginosa A-21294 organism; assay type: functional
Providencia rettgeri [20] = experiment: Antibacterial activity expressed as MIC value was determined on Proteus rettgeri A-21207 organism; assay type: functional
Pseudomonas aeruginosa [21] = experiment: Antibacterial activity expressed as MIC value was determined on Pseudomonas aeruginosa A-21509 organism; assay type: functional
Pseudomonas aeruginosa [22] = experiment: Antibacterial activity expressed as MIC value was determined on Pseudomonas aeruginosa A-22233 organism; assay type: functional
Pseudomonas aeruginosa [23] = experiment: Antibacterial activity expressed as MIC value was determined on Pseudomonas aeruginosa A-9834A organism; assay type: functional
Serratia marcescens = experiment: Antibacterial activity expressed as MIC value was determined on Serratia marcescens A-20019 organism; assay type: functional
Staphylococcus aureus [24] = experiment: Antibacterial activity expressed as MIC value was determined on Staphylococcus aureus A-20240 organism; assay type: functional
Staphylococcus aureus [25] = experiment: Antibacterial activity expressed as MIC value was determined on Staphylococcus aureus A-21978 organism; assay type: functional
Staphylococcus aureus [26] = experiment: Antibacterial activity expressed as MIC value was determined on Staphylococcus aureus A-22058 organism; assay type: functional
Staphylococcus aureus [27] = experiment: Antibacterial activity expressed as MIC value was determined on Staphylococcus aureus A-22210 organism; assay type: functional
Staphylococcus aureus [28] = experiment: Antibacterial activity expressed as MIC value was determined on Staphylococcus aureus A-22231 organism; assay type: functional
Staphylococcus aureus [29] = experiment: Antibacterial activity expressed as MIC value was determined on Staphylococcus aureus A-9537 organism; assay type: functional
Providencia stuartii [30] = experiment: Antibacterial activity expressed as MIC value was determined on Proteus stuartii A-20894 organism; assay type: functional
Pseudomonas aeruginosa [31] = experiment: Antibacterial activity expressed as MIC value was determined on Pseudomonas aeruginosa A-20741 organism; assay type: functional
Enterobacter cloacae [32] = experiment: Antibacterial activity expressed as MIC value was determined on Enterobacter cloacae A-20364 organism; assay type: functional
Pseudomonas aeruginosa [33] = experiment: Antibacterial activity expressed as MIC value was determined on Pseudomonas aeruginosa A-21508 organism; assay type: functional
Escherichia coli [34] = experiment: as §1; assay type: functional; remark: listed apart in the source
Providencia rettgeri [35] = experiment: as §2; assay type: functional; remark: listed apart in the source
Staphylococcus aureus [36] = experiment: Antibacterial activity expressed as MIC value was determined on Staphylococcus aureusA-22058 organism; assay type: functional, organism-based

| Compound | MIC (Escherichia coli [1]) [µg/mL] | MIC (Escherichia coli [3]) [µg/mL] | MIC (Escherichia coli [4]) [µg/mL] | MIC (Escherichia coli [5]) [µg/mL] | MIC (Escherichia coli [6]) [µg/mL] | MIC (Escherichia coli [7]) [µg/mL] | MIC (Escherichia coli [8]) [µg/mL] | MIC (Escherichia coli [9]) [µg/mL] | MIC (Enterobacter cloacae [10]) [µg/mL] | MIC (Enterobacter cloacae [11]) [µg/mL] | MIC (Enterobacter cloacae [12]) [µg/mL] | MIC (Klebsiella pneumoniae) [µg/mL] | MIC (Providencia stuartii [13]) [µg/mL] | MIC (Proteus mirabilis) [µg/mL] | MIC (Pseudomonas aeruginosa [15]) [µg/mL] | MIC (Pseudomonas aeruginosa [16]) [µg/mL] | MIC (Pseudomonas aeruginosa [17]) [µg/mL] | MIC (Pseudomonas aeruginosa [18]) [µg/mL] | MIC (Pseudomonas aeruginosa [19]) [µg/mL] | MIC (Providencia rettgeri [20]) [µg/mL] | also measured |
| --- | --- | --- | --- | --- | --- | --- | --- | --- | --- | --- | --- | --- | --- | --- | --- | --- | --- | --- | --- | --- | --- |
| CC1(C)S[C@@H]2[C@H](NC(=O)C(C(=O)O)c3ccccc3)C(=O)N2[C@H]1C(=O)O.NC[C@H]1O[C@H](O[C@H]2[C@H](O)[C@@H](O[C@H]3O[C@H](CO)[C@@H](O)[C@H](N)[C@H]3O)[C@H](N)C[C@@H]2N)[C@H](N)C[C@@H]1O | > 250 | > 250 | > 250 | > 250 | > 250 | > 250 | > 250 | > 250 | > 250 | > 250 | > 250 | > 250 | > 250 | > 250 | > 250 | 250 | > 250 | > 250 | > 250 | > 250 | MIC (Escherichia coli [2]): > 250 µg/mL; MIC (Providencia rettgeri [14]): 125 µg/mL; MIC (Pseudomonas aeruginosa [21]): > 250 µg/mL; MIC (Pseudomonas aeruginosa [22]): > 250 µg/mL; MIC (Pseudomonas aeruginosa [23]): 250 µg/mL; MIC (Serratia marcescens): 250 µg/mL; MIC (Staphylococcus aureus [24]): > 250 µg/mL; MIC (Staphylococcus aureus [25]): > 250 µg/mL; MIC (Staphylococcus aureus [26]): > 250 µg/mL; MIC (Staphylococcus aureus [27]): > 250 µg/mL; MIC (Staphylococcus aureus [28]): 63 µg/mL; MIC (Staphylococcus aureus [29]): 63 µg/mL; MIC (Providencia stuartii [30]): > 250 µg/mL; MIC (Pseudomonas aeruginosa [31]): > 250 µg/mL; MIC (Enterobacter cloacae [32]): > 250 µg/mL; MIC (Pseudomonas aeruginosa [33]): 250 µg/mL |
| CC1(C)S[C@@H]2[C@H](NC(=O)C(C(=O)O)c3ccccc3)C(=O)N2[C@H]1C(=O)O.NC[C@H]1O[C@H](O[C@H]2[C@H](O)[C@@H](O[C@H]3O[C@H](CO)[C@@H](O)[C@H](N)[C@H]3O)[C@H](N)C[C@@H]2N)[C@H](O)[C@@H](O)[C@@H]1O | > 250 | > 250 | > 250 | > 250 | > 250 | > 250 | > 250 | > 250 | > 250 | > 250 | > 250 | > 250 | > 250 | > 250 | > 250 | > 250 | > 250 | > 250 | > 250 | > 250 | MIC (Escherichia coli [2]): > 250 µg/mL; MIC (Providencia rettgeri [14]): 250 µg/mL; MIC (Pseudomonas aeruginosa [21]): > 250 µg/mL; MIC (Pseudomonas aeruginosa [22]): > 250 µg/mL; MIC (Pseudomonas aeruginosa [23]): > 250 µg/mL; MIC (Serratia marcescens): > 250 µg/mL; MIC (Staphylococcus aureus [24]): > 250 µg/mL; MIC (Staphylococcus aureus [25]): > 250 µg/mL; MIC (Staphylococcus aureus [26]): > 250 µg/mL; MIC (Staphylococcus aureus [27]): > 250 µg/mL; MIC (Staphylococcus aureus [28]): > 250 µg/mL; MIC (Staphylococcus aureus [29]): > 250 µg/mL; MIC (Providencia stuartii [30]): > 250 µg/mL; MIC (Pseudomonas aeruginosa [31]): > 250 µg/mL; MIC (Enterobacter cloacae [32]): > 250 µg/mL; MIC (Pseudomonas aeruginosa [33]): > 250 µg/mL |
| 2-{4,6-Diamino-3-[3-amino-6-(1-amino-ethyl)-tetrahydro-pyran-2-yloxy]-2-hydroxy-cyclohexyloxy}-5-methyl-4-methylamino-tetrahydro-pyran-3,5-diol; compound with 6-(2-carboxy-2-phenyl-acetylamino)-3,3-dimethyl-7-oxo-4-thia-1-aza-bicyclo[3.2.0]heptane-2-carbo | 250 | > 250 | > 250 | 250 | > 250 | > 250 | 250 | > 250 | 250 | > 250 | > 250 | 125 | > 250 | 250 | > 250 | > 250 | > 250 | > 250 | > 250 | > 250 | MIC (Escherichia coli [34]): 250 µg/mL; MIC (Providencia rettgeri [35]): 32 µg/mL; MIC (Pseudomonas aeruginosa [21]): > 250 µg/mL; MIC (Pseudomonas aeruginosa [22]): > 250 µg/mL; MIC (Pseudomonas aeruginosa [23]): > 250 µg/mL; MIC (Serratia marcescens): > 250 µg/mL; MIC (Staphylococcus aureus [24]): > 250 µg/mL; MIC (Staphylococcus aureus [25]): > 250 µg/mL; MIC (Staphylococcus aureus [27]): > 250 µg/mL; MIC (Staphylococcus aureus [28]): 16 µg/mL; MIC (Staphylococcus aureus [29]): 16 µg/mL; MIC (Staphylococcus aureus [36]): 32 µg/mL; MIC (Providencia stuartii [30]): > 250 µg/mL; MIC (Pseudomonas aeruginosa [31]): > 250 µg/mL; MIC (Enterobacter cloacae [32]): 250 µg/mL; MIC (Pseudomonas aeruginosa [33]): > 250 µg/mL |
